From PubChem BioAssay AID256 (DTP/NCI, 2004)
Inconclusive results and toxic doses are left out.

Tested on: CD2F1 mice, L1210 leukemia ip, survival T/C
Test: NCI In Vivo Anticancer Drug Screen. Data for tumor model L1210 Leukemia (intraperitoneal) in CD2F1 (CDF1) mice
Conditions: endpoint: mean survival time, higher = longer survival
Summary of the method: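 Each value reflects a quotient of treated over vehicle control outcomes in mice with a transplanted tumor.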

[1] = dose: 25.0 mg/kg/injection, schedule: Q01DX009 (ip), vehicle: saline with Tween-80
[2] = dose: 50.0 mg/kg/injection, schedule: Q01DX009 (ip), vehicle: saline with Tween-80
[3] = dose: 100.0 mg/kg/injection, schedule: Q01DX009 (ip), vehicle: saline with Tween-80
[4] = dose: 100.0 mg/kg/injection, schedule: Q01DX001 (ip), vehicle: Klucel (hydroxypropylcellulose) (HPC)
[5] = dose: 200.0 mg/kg/injection, schedule: Q01DX001 (ip), vehicle: Klucel (hydroxypropylcellulose) (HPC)
[6] = dose: 100.0 mg/kg/injection, schedule: Q04DX003 (ip), vehicle: saline with Tween-80
[7] = dose: 200.0 mg/kg/injection, schedule: Q01DX009 (ip), vehicle: saline with Tween-80
[8] = dose: 200.0 mg/kg/injection, schedule: Q04DX003 (ip), vehicle: saline with Tween-80
[9] = dose: 50.0 mg/kg/injection, schedule: Q04DX003 (ip), vehicle: saline with Tween-80
[10] = dose: 400.0 mg/kg/injection, schedule: Q01DX009 (ip), vehicle: saline with Tween-80
[11] = dose: 400.0 mg/kg/injection, schedule: Q04DX003 (ip), vehicle: saline with Tween-80

SMILES: COc1ccc(NC(=O)CCl)c(OC)c1
- T/C (dose: 100.0 mg/kg/injection, schedule: Q04DX002 (ip), vehicle: saline with Tween-80): 108 % of control
- T/C (dose: 200.0 mg/kg/injection, schedule: Q04DX002 (ip), vehicle: saline with Tween-80): 97 % of control
- T/C (dose: 400.0 mg/kg/injection, schedule: Q04DX002 (ip), vehicle: saline with Tween-80): 97 % of control

SMILES: COc1ccc(C=Nc2ccc3c(c2)OCO3)cc1Br
- T/C [1]: 98 % of control
- T/C [2]: 97 % of control
- T/C [3]: 103 % of control

SMILES: N/C(=N/N=C/c1ccco1)N[N+](=O)[O-]
- T/C (dose: 50.0 mg/kg/injection, schedule: Q01DX001 (ip), vehicle: Klucel (hydroxypropylcellulose) (HPC)): 97 % of control
- T/C [4]: 94 % of control
- T/C [5]: 97 % of control

SMILES: O=[N+]([O-])c1ccc2ccccc2c1-c1c([N+](=O)[O-])ccc2ccccc12
- T/C [2]: 92 % of control
- T/C [3]: 90 % of control
- T/C [6]: 93 % of control
- T/C [7]: 90 % of control
- T/C [8]: 87 % of control

SMILES: CC(C)(C)C1SCC(O)CS1 (centres undefined)
- T/C (dose: 12.5 mg/kg/injection, schedule: Q04DX002 (ip), vehicle: saline with Tween-80): 105 % of control
- T/C (dose: 25.0 mg/kg/injection, schedule: Q04DX002 (ip), vehicle: saline with Tween-80): 97 % of control
- T/C (dose: 50.0 mg/kg/injection, schedule: Q04DX002 (ip), vehicle: saline with Tween-80): 97 % of control

SMILES: Cc1ccc(NC(=O)OCCOc2ccc([N+](=O)[O-])cc2)cc1C
- T/C [2]: 108 % of control
- T/C [3]: 92 % of control
- T/C [7]: 92 % of control

SMILES: CN(C)Cc1ncccc1O
- T/C (dose: 50.0 mg/kg/injection, schedule: Q01DX009 (ip), vehicle: suspension in saline): 110 % of control
- T/C (dose: 100.0 mg/kg/injection, schedule: Q01DX009 (ip), vehicle: suspension in saline): 108 % of control
- T/C (dose: 200.0 mg/kg/injection, schedule: Q01DX009 (ip), vehicle: suspension in saline): 112 % of control

SMILES: C1=C(c2ccccc2)CC(/C=C/c2ccccc2)(c2ccccc2)C1c1ccccc1 (centres undefined)
- T/C [1]: 92 % of control
- T/C [2]: 98 % of control
- T/C [3]: 90 % of control

SMILES: CC(=O)OC1(/N=[N+](/C)[O-])CCCC1
- T/C [9]: 167 % of control
- T/C [6]: 95 % of control

SMILES: [O-]/[N+](=C\c1ccccc1)C1CCCCC1
- T/C (dose: 100.0 mg/kg/injection, schedule: Q01DX001 (ip), vehicle: saline with Tween-80): 94 % of control
- T/C (dose: 200.0 mg/kg/injection, schedule: Q01DX001 (ip), vehicle: saline with Tween-80): 95 % of control
- T/C (dose: 400.0 mg/kg/injection, schedule: Q01DX001 (ip), vehicle: saline with Tween-80): 95 % of control

SMILES: O=C(O)/C(Cl)=C(/Cl)C(Cl)=C(Cl)Cl
- T/C [1]: 96 % of control
- T/C (dose: 25.0 mg/kg/injection, schedule: Q04DX003 (ip), vehicle: saline with Tween-80): 100 % of control
- T/C [2]: 95 % of control
- T/C [9]: 98 % of control
- T/C [3]: 93 % of control
- T/C [6]: 91 % of control

SMILES: C/C(=N/NC(=O)c1ccccc1)c1ccc(O)cc1
- T/C [3]: 96 % of control
- T/C [6]: 96 % of control
- T/C [7]: 97 % of control
- T/C [8]: 98 % of control
- T/C [10]: 91 % of control
- T/C [11]: 100 % of control

SMILES: O=C(/C=C(\NC1CCCCC1)C(=O)c1ccccc1)c1ccccc1
- T/C [3]: 87 % of control
- T/C [7]: 98 % of control
- T/C [8]: 86 % of control
- T/C [10]: 97 % of control
- T/C [11]: 86 % of control

SMILES: C(=Nc1cccc2ccccc12)c1ccc2c(c1)OCO2
- T/C [4]: 98 % of control
- T/C (dose: 100.0 mg/kg/injection, schedule: Q01DX009 (ip), vehicle: Klucel (hydroxypropylcellulose) (HPC)): 91 % of control
- T/C [5]: 93 % of control
- T/C (dose: 200.0 mg/kg/injection, schedule: Q01DX009 (ip), vehicle: Klucel (hydroxypropylcellulose) (HPC)): 96 % of control
- T/C (dose: 400.0 mg/kg/injection, schedule: Q01DX001 (ip), vehicle: Klucel (hydroxypropylcellulose) (HPC)): 96 % of control
- T/C (dose: 400.0 mg/kg/injection, schedule: Q01DX009 (ip), vehicle: Klucel (hydroxypropylcellulose) (HPC)): 96 % of control
